Data reported in PMC7073229, “Novel Quinoline Compounds Active in Cancer Cells through Coupled DNA Methyltransferase Inhibition and Degradation” (Cancers, 2020).
Where two headings read alike, the source gives them in different places.

Key:
human DNMT1 (hDNMT1) = molecular target: T1, human DNMT1 (hDNMT1) (Homo sapiens, UniProt P26358); assay: DNMT1 assay ([methyl-3H]SAM, Flashplate); type: biochemical; settings: mean of at least two independent experiments; read-out: Enzyme Inhibition (EC50 ± SD) hDNMT1
T1 construct: His; made in house
T1 sequence (P26358 whole entry): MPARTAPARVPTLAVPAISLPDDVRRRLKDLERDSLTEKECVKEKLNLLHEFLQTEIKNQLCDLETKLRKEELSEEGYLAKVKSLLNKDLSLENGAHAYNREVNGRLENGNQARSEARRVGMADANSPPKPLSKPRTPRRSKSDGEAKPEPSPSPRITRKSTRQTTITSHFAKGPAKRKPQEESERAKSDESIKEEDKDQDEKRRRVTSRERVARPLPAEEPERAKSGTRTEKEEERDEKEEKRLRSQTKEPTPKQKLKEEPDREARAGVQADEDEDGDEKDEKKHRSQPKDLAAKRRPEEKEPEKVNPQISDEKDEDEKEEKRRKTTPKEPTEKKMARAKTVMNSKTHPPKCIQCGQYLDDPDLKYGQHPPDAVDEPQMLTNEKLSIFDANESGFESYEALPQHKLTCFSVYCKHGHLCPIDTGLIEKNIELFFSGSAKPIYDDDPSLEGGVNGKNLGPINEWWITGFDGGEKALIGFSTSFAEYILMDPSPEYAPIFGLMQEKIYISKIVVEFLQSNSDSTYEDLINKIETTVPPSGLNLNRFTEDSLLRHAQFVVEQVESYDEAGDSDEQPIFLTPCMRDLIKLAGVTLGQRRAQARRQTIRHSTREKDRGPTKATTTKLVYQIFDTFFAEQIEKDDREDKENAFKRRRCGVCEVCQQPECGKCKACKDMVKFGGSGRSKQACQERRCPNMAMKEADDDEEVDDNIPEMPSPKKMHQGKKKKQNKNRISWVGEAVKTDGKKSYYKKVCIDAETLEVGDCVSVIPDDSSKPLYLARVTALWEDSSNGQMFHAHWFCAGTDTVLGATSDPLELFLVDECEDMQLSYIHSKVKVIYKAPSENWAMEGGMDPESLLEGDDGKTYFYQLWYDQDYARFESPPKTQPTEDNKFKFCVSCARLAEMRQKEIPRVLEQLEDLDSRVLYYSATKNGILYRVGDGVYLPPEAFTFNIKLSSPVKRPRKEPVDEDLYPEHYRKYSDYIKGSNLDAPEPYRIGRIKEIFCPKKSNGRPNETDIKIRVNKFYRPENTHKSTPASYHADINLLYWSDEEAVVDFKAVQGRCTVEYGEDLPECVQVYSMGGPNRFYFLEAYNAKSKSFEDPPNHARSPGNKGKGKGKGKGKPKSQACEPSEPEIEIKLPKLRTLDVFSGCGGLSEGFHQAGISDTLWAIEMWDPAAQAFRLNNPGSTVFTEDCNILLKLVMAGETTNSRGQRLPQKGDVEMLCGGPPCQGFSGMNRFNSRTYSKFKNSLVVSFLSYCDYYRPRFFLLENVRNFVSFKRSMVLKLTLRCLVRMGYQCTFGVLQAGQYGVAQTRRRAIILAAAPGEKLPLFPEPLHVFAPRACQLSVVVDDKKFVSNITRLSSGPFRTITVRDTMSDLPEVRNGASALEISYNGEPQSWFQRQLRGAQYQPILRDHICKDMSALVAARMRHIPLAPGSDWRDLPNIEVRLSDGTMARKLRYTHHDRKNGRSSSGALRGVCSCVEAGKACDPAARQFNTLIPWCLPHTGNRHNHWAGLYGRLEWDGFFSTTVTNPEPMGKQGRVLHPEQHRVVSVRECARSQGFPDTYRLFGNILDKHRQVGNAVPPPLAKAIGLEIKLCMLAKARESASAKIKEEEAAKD
Description: His-DNMT1 (182 kDa, human) was cloned, expressed, and purified as described by Lee et al.. The DNMT1 assay was performed according to Gros et al.. […] The reaction was incubated 2 h at 37 °C, then 8 µL of the solution are transferred into a streptavidin 96-well scintillant coated Flashplate containing 190 µL of 20 mM SAH in 50 mM Tris–HCl (pH 7.4). The Flashplate is agitated for 1 h at room temperature and washed. The plate is read with TopCount (PerkinElmer). In this assay, the negative and positive controls were defined as wells without enzyme and wells with only DMSO, respectively.

[1] = molecular target: T2, C-terminal catalytic domain of human DNMT3A (hDNMT3A) (Homo sapiens, UniProt Q9Y6K1); assay: DNMT3A restriction-based fluorescence assay; type: biochemical; settings: mean of at least two independent experiments; read-out: Enzyme Inhibition (EC50 ± SD) hDNMT3A
T2 construct: the C-terminal catalytic domain of human DNMT3A (hDNMT3A)
T2 sequence (Q9Y6K1 634-912 limits assumed): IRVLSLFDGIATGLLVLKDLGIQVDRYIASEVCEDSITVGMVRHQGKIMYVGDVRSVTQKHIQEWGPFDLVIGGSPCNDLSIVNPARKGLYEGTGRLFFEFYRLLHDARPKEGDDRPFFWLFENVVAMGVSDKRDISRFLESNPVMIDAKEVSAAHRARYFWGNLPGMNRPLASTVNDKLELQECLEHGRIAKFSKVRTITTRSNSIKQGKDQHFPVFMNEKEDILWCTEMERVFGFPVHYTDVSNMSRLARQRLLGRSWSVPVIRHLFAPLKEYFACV
Description: DNMT3A enzyme inhibition was adapted from the restriction-based fluorescence assay protocol described in Ceccaldi et al.. Briefly, a biotin-labelled oligonucleotide at the 5’ end is hybridized to his complementary strand labelled at the 3’ end with 6-carboxyfluorescein. The DNA duplex containing only one single CpG site overlapping with a restriction site of a methylation sensitive restriction enzyme is transferred in the wells coated with avidin. The methylation reaction is performed by adding human C-terminal DNMT3A at the final concentration of 4 ng/µL in a total volume of 50 µL in the presence of the inhibitors at various concentrations and the co-substrate SAM at the final concentration of 20 µM. The plate was incubated for 1 h at 37 °C, washed, and added with the methylation sensitive restriction enzyme HpyCH4IV, incubated for 1 h further at 37 °C, washed and the fluorescence measured with a PerkinElmer Envision Multilabel Plate Reader. The data are expressed as percentage of inhibition vs. log concentration (M). Data are normalized referring to the “restriction control” (wells coated with labelled duplex not treated nor exposed to DNMT3A, but only cleaved by HpyCH4IV) as the maximum of inhibition (100%) and to the “DMSO control” (wells coated with labelled duplex but treated just with 0.1% DMSO exposed to DNMT3A and then to HpyCH4IV) as the minimum of inhibition (0%; total methylation).

HL60 APL cells [2] = assay: Antiproliferative activity, MTT; type: cell-based; settings: Homo sapiens, HL-60, 48 h treatment, read-out: Antiproliferative Activity (IC50 ± SD) HL60
Description: (§1) U937 histiocytic lymphoma, HL60 acute promyelocytic leukemia, H1299 lung adenocarcinoma, MCF7 breast carcinoma, HT1080 fibrosarcoma, M14 melanoma, HeLa epithelial cervix carcinoma and peripheral blood B lymphocyte AHH1 human cell lines were obtained from the Deutsche Sammlung für Mikroorganismen and Zellkulturen (DSZM, Braunschweig, Germany) and were maintained in RPMI 1640 medium contained 10% fetal bovine serum (FBS), 2 mM L-glutamine, and antibiotics in a humidified atmosphere with 5% CO2 at 37 °C. HCT116 (ATCC, VA, USA) cells were propagated in Dulbecco’s modified Eagle medium (DMEM) (Euroclone, Milan, Italy) with 10% fetal bovine serum (FBS; Euroclone, Milan, Italy), 2 mM L-glutamine (Euroclone, Milan, Italy), and antibiotics (100 U/mL penicillin, 100 µg/mL streptomycin) (Euroclone, Milan, Italy). The experiments were performed with early (3–20) cell passages. Cell lines were treated with compounds at the indicated concentrations in the exponential growth phase.
(§2) Then, increasing concentrations of different compounds (ranging from 0.01 to 100 μM) were added, and cell proliferation was evaluated by a MTT assay after 48 h. Cells exposed to DMSO were used as control. The effect of compounds was evaluated using the CellTiter-Glo luminescent cell viability assay (Promega, Madison, WI, USA) according to the manufacturer’s instructions. For HCT116, 5 × 10^4 cells/well were plated in 24-well plate and treated, in duplicate, with compounds at several concentrations for 24 and 48 h of induction. After treatments, MTT solution was added for 3 h at 0.5 mg/mL, the obtained crystals were dissolved in DMSO (Sigma-Aldrich, Milan, Italy), and the absorbance was read at a wavelength of 570 nm with reader TECAN M-200. All the experiments were performed in triplicate and repeated at least three times.
(§3) IC50 values of compounds against cellular viability were determined by using nonlinear regression fitting curves with GraphPad Prism 8. The t-test used for statistical analyses was performed with GraphPad Prism 8. All the tests were one-tailed and a p-value < 0.05 was considered statistically significant.

U937 AML cells [3] = assay: Antiproliferative activity, MTT; type: cell-based; settings: Homo sapiens, U-937, 48 h treatment, read-out: Antiproliferative Activity (IC50 ± SD) U937
Description: as §1, §2, §3

[4] = tested on: H1299 human non-small cell lung carcinoma; assay: Antiproliferative activity, MTT; type: cell-based; settings: 48 h treatment, read-out: Antiproliferative Activity (IC50 ± SD) H1299
Description: as §1, §2, §3

[5] = tested on: HCT116 human colorectal carcinoma; assay: Antiproliferative activity, MTT; type: cell-based; settings: HCT-116, 48 h treatment, read-out: Antiproliferative Activity (IC50 ± SD) HCT116
Description: as §1, §2, §3

[6] = tested on: HT1080 human fibrosarcoma; assay: Antiproliferative activity, MTT; type: cell-based; settings: HT-1080, 48 h treatment, read-out: Antiproliferative Activity (IC50 ± SD) HT1080
Description: as §1, §2, §3

[7] = tested on: HeLa epithelial cervix carcinoma; assay: Antiproliferative activity, MTT; type: cell-based; settings: Homo sapiens, 48 h treatment, read-out: Antiproliferative Activity (IC50 ± SD) HeLa
Description: as §1, §2, §3

M14 human melanoma = assay: Antiproliferative activity, MTT; type: cell-based; settings: 48 h treatment, read-out: Antiproliferative Activity (IC50 ± SD) M14
Description: as §1, §2, §3

F21T G-quadruplex DNA = assay: FRET melting assay, G-quadruplex DNA; type: binding
Description: (§4) Experimental procedure for Fluorescence Resonance Energy Transfer (FRET) melting assay Oligonucleotides labeled at 5’ with FAM (6-carboxyfluorescein) as donor fluorophore and TAMRA (6 - carboxytetramethylrhodamine) at 3’ as the acceptor fluorophore were purchased from STAB VIDA (Portugal). Each oligonucleotide was initial ly diluted to 100 µM in water (Molecular Biology Reagent, Sigma). Stock solutions of 20 µM and subsequent dilutions were made with FRET buffer (60 mM KCl, potassium cacodylate, pH 7.4). Tagged oligonucleotides at 0.4 µM were annealed by heating at 90 -95 °C for 10 min, followed by slow cooling to room temperature. St ock solutions of compounds (1 mM) were prepared in 10% DMSO. Subsequent dilutions were performed using FRET buffer. Annealed DNA (50 µL) and test compound solutions (50 µL) were distributed across 96-well RT-PCR plates (PCR-96-FLT-C, Axygen, Inc). Fluorescence readings (performed in a 7300 RT -PCR equipment from Applied Biosystems) were taken at intervals of 0.5 °C in the range 31 –95 °C, with the temperature being maintained for 30 seconds prior to each reading. Experiments were performed in triplicate. Fina l analysis of the data was carried out with GraphPad Prism v.5.0 (GraphPad Software Inc., La Jolla, CA, USA).
(§5) The advanced curve-fitting function in GraphPad Prism (nonlinear regression fit) was used for calculation of ΔTm values. Only results with fitting r2 values > 0.75 (std error < 0.25) were considered.
(§6) Table S2. Synthetic oligonucleotides used in FRET experiments.

KRAS21R G-quadruplex DNA = assay: FRET melting assay, G-quadruplex DNA; type: binding
Description: as §4, §5, §6

U937 AML cells [8] = settings: MTT, 48 h, read-out: Antiproliferative Activity (IC50 ± SD) U937, cited from earlier work
HL60 APL cells [9] = settings: MTT, 48 h, read-out: Antiproliferative Activity (IC50 ± SD) HL60, cited from earlier work
[10] = tested on: luciferase reporter under methylated CMV promoter in KG-1 leukemia cells; assay: CMV-luc assay in KG-1 cells; type: cell-based; settings: KG-1 CMV-luc, vs DMSO
Description: The assay was carried out as described by Rilova et al.. The KG-1 cell line was stably transfected with the luciferase firefly (Luc^+ from pGL3 by Promega, Madison, WI, USA) reporter gene under the control of a methylated CMV promoter (from pEGFP-N1 by Clontech) and selected for the maintenance of the methylation of CMV and luciferase expression silencing (KG-1 CMV-luc). The stably integrated KG-1 CMV-luc cells are cultivated in RPMI-1640 medium (Lonza, Strasbourg, France), supplemented with 10% FCS (Lonza, Strasbourg, France) and 0.5 mg/mL of geneticin (Sigma-Aldrich, Saint-Quentin Fallavier, France), under 5% CO2, at 37 °C and seeded at 20,000 cells per well in 96-well plates. After 5 or 24 h of incubation in the presence of compounds or the solvent DMSO, the induction of the promoter is measured by quantification of luciferase with the Brite-lite assay system (PerkinElmer, Villebon-sur-Yvette, France) according to the manufacturer’s protocol. The luminescence is measured on an EnVision Multilabel Plate Reader (PerkinElmer, Villebon-sur-Yvette, France), and the data are expressed as fold induction compared to DMSO control. The mean of 2–4 experiments and its standard error are reported.

[11] = tested on: methylated UCHL1 promoter (pUCHL1) in HCT116 cells; assay: UCHL1 promoter demethylation assay (EGFP induction, FACS); type: cell-based, human; settings: five days
Description: The assay was performed as described in [29]. Briefly, human colon cancer HCT116 (ATCC, VA, USA) cells were grown in Dulbecco’s Modified Eagle Medium (DMEM; Euroclone, Milan, Italy) supplemented with 10% fetal bovine serum (FBS; Euroclone, Milan, Italy), 2 mM L-glutamine (Euroclone), and antibiotics (100 U/mL penicillin, 100 µg/mL streptomycin) (Euroclone). The pUMLIEP vector (composed by MetLuc-IRES-EGFP construct upon the control of the ubiquitin carboxyl-terminal hydrolase L1 (UCHL1)) was linearized and methylated by with ClaI and SssI-methylase enzymes (New England Biolabs, Milan, Italy). After, methylated pUMLIEP was transfected into HCT116 cells following the protocol described in [30]. […] On day 5, cells were observed under by a fluorescent microscope (Cytation 5 Cell Imaging Multi-Mode Reader (BioTeK Milan, Italy) and BD Accuri flow cytometers. Nuclei were counterstained with DAPI (10 µg/mL, Invitrogen, Tournai, Belgium).

Row | Structure (SMILES) | IC50 ([4]; Homo sapiens, NCI-H1299, 48 h) | IC50 [5] | IC50 [6] | IC50 [7] | IC50 (M14 human melanoma) | F21T ∆Tm (F21T G-quadruplex DNA; 5 µM) | F21T ∆Tm (F21T G-quadruplex DNA; 10 µM) | KRAS ∆Tm (KRAS21R G-quadruplex DNA; 5 µM) | KRAS ∆Tm (KRAS21R G-quadruplex DNA; 10 µM) | IC50 (U937 AML cells [8]; reference compounds) | IC50 (HL60 APL cells [9]; reference compounds) | further results
1 | Cc1cc(Nc2cccc(CNC(=O)c3cccc(Nc4ccnc5ccccc45)c3)c2)nc(N)n1 [Compound 1c] | – | – | – | – | – | – | – | – | – | – | – | EC50 (human DNMT1 (hDNMT1)): 35 ± 7 µM; EC50 [1]: 31 ± 6 µM; IC50 (HL60 APL cells [2]): 36 ± 4 µM; IC50 (U937 AML cells [3]): 25.8 ± 3.2 µM
2 | O=C(Nc1ccc(Nc2ccnc3ccccc23)cc1)c1ccc(Nc2ccnc3ccccc23)cc1 [Compound 2, reference compound] | 11 µM | 13.3 ± 2.1 µM | 17 ± 2.1 µM | 52 ± 5.7 µM | 80 ± 9.1 µM | 0.6 ºC | 6.2 ºC | 1.0 ºC | 9.6 ºC | 6.6 ± 0.9 µM | 65 ± 8.1 µM | IC50 [4]: 11.4 ± 1.8 µM
3 | Cc1cc(Nc2ccc(NC(=O)c3ccc(Nc4cc(C)nc(N)n4)cc3)cc2)nc(N)n1 [Compound 3] | – | – | – | – | – | – | – | – | – | 60 ± 8.2 µM | 119 ± 12.9 µM | –
4 | O=C(Nc1ccc(NC(=O)c2ccc(Nc3ccnc4ccccc34)cc2)cc1)OCc1ccccc1 [Compound 4, reference compound] | 5.9 ± 0.8 µM | 8.6 ± 1 µM | 1.7 ± 0.2 µM | 3.2 ± 0.5 µM | 2.9 ± 0.4 µM | 2.7 ºC | 6.9 ºC | 1 ºC | 10.4 ºC | – | – | IC50 (U937 AML cells [8]; reference compound): 2.3 ± 0.4 µM; IC50 (HL60 APL cells [9]; reference compound): 8.3 ± 1 µM
5 | Nc1ncn([C@H]2C[C@H](O)[C@@H](CO)O2)c(=O)n1 [DAC, 5-aza-2′-deoxycytidine, reference compound] | – | – | – | – | – | – | – | – | – | – | – | Luciferase Expression (Fold ± SD) ([10]; 0.5 µM): 18.13 ± 5.52 fold; Luciferase Expression (Fold ± SD) ([10]; 1 µM): 19.80 ± 3.88 fold; Luciferase Expression (Fold ± SD) ([10]; 5 µM): 23.82 ± 5.44 fold; Luciferase Expression (Fold ± SD) ([10]; 10 µM): 20.96 ± 4.02 fold; pUCHL1 demethylation, EGFP-positive cells (FACS R1) ([11]; HCT116, 5 µM): 46.6%
6 | Cc1cc(Nc2ccc(NC(=O)c3ccc(Nc4ccnc5ccccc45)cc3)cc2)nc(N)n1 [SGI-1027, reference compound] | – | – | – | – | – | 1.9 ºC | 7.2 ºC | 6.7 ºC | 8.7 ºC | 0.7 ± 0.08 µM | 0.7 ± 0.16 µM | pUCHL1 demethylation, EGFP-positive cells (FACS R1) ([11]; HCT116, 0.5 µM): 32.9%
